Experiments:
[1] = In-vitro drug permeation study, human cadaver skin, Valia-Chien cell, HPLC; format: in vitro ADME; settings: from 10 cm^2 TCDS patch of Example 1, steady state
Procedure: The samples taken from the receptor compartment of the diffusion cell were analyzed by high performance liquid chromatography.
The skin permeation flux of each drug was subsequently calculated from the steady state of the permeation profile.

[2] = Phase I residual drug assay of used patches (daily delivery rate); settings: for relationship between daily delivery rate and dosage: 1, 2 or 3 × 10 cm^2 TCDS patches; for Daily Delivery Rate: ± S.D.
Text: In this study, healthy female subjects of child-bearing age were randomly divided into 4 groups in a 4-way parallel study design (See Table 5). The study consists of three menstrual cycles which are sequentially arranged as pre-treatment, treatment and post-treatment cycles. During the pre-treatment cycle, the 48 recruited subjects were given placebo TCDS patches to study the wearability (including skin irritation and adhesion tests) while they were being screened against the inclusion/exclusion criteria specified in the clinical protocol. During the treatment cycle, each of the […] in Group A, B and C received weekly application of 1, 2 or 3 pieces of 10 cm^2 TCDS patches, respectively, while each subject in Group D received one oral contraceptive pill (each pill contains 150 μg of levonorgestrel and 35 μg of ethynyl estradiol) per day as reference.

Rabbit Skin = assay: Residual drug assay of patches from dermal toxicity test (daily delivery rate into rabbit); settings: for in vivo delivery rate compared with in vitro rate: rabbit vs in vitro; for Daily Delivery Rate: rabbit, N = 6, ± S.D.
Procedure: The test consists of an one-week primary skin irritation study on six rabbits followed by histopathological examination on each patch application. Both medicated and placebo patches of this TCDS formulation were tested on either intact or abraded skin. Based on the Draize Scale Scoring Method, the primary dermal irritation index (PDII) was given to each patch application site at 24 and 72 hours following the 7 days application period. The patches used in the primary skin irritation test were retrieved for residual drug assay to determine the amount of drugs delivered into the test animal.

[3] = Phase I serum levonorgestrel by radioimmunoassay; format: in vivo, human (fertile Chinese women); settings: Groups B and C, three weeks of patch application
Procedure: Blood samples obtained from these three cycles of studies were assayed by radioimmunoassay (RIA) methods for their serum concentration of levonorgestrel, estradiol, progesterone, luteinizing hormone (LH) and follicle stimulating hormone (FSH). Ultrasonic measurement of follicle size and endometrium thickness measurement were also performed during the mid-treatment cycle. Bioavailability of levonorgestrel was assessed by the serum levonorgestrel profile of each subject group. Suppression of post-ovulatory progesterone peak and mid-cycle surges of LH and FSH provided hormonal indications of ovulation inhibition.

C[C@]12CC[C@@H]3c4ccc(O)cc4CC[C@H]3[C@@H]1CC[C@@H]2O [17-beta-estradiol]
skin permeation flux / amount delivered [1]: ~28.8 µg/day | relationship between daily delivery rate and dosage [2]: established only for the dosages of the first and second pieces of 10 cm^2 TCDS patches | Daily Delivery Rate ([2]; Group A: 1 × 10 cm^2 patch/week): 42.1 ± 16.32 µg/day | Daily Delivery Rate ([2]; Group B: 2 × 10 cm^2 patch/week): 89.7 ± 28.4 µg/day | Daily Delivery Rate ([2]; Group C: 3 × 10 cm^2 patch/week): 110.4 ± 28.61 µg/day | in vivo delivery rate compared with in vitro rate (Rabbit Skin): higher than skin permeation rate obtained in the in vitro study | Daily Delivery Rate (Rabbit Skin; abraded skin): 35.1 ± 26.70 µg/day | Daily Delivery Rate (Rabbit Skin; intact skin): 37.0 ± 19.77 µg/day

C#C[C@]1(O)CC[C@H]2[C@@H]3CCC4=CC(=O)CC[C@@H]4[C@H]3CC[C@@]21CC [Levonorgestrel, levonorgestrel]
skin permeation flux / amount delivered [1]: about 60.0±9.42 μg/day | serum concentration of levonorgestrel versus target concentration [3]: above the target concentration throughout the three weeks of patch application | relationship between daily delivery rate and dosage [2]: linearly proportional to the increase in dosage of TCDS patches | in vivo delivery rate compared with in vitro rate (Rabbit Skin): seems to correlate very well with the in vitro delivery rate

Source: US5762956A, “Transdermal contraceptive delivery system and process” (priority 1996, dated 1998)
